# Results reported in patent publication US8293788B2, “2-phenylpropionic acid derivatives and pharmaceutical compositions containing them” (priority 2004, dated 2012).
# Assays:
# [1] = Protein binding in rat plasma (ultrafiltration); format: in vitro ADME; conditions: 37° C.
# Procedure: Protein Binding was determined as follows: Duplicate rat plasma samples of each compound at 50 μg/mL concentration were incubated at 37° C. for 20 minutes under gentle shaking. Then samples were ultrafiltrated through Centrifree® micropartition devices by centrifugation at 1500 g for 15 minutes. The ultrafiltrate was subjected to HPLC-MS/MS quantitative analysis (Column Luna C18, 150×2 mm ID 5 μm (Phenomenex), mobile phase: eluent A) 0.02M HCOO^−NH4^+ (pH 4.3 with HCOOH); eluent B) CH3OH).
# [2] = system: GRO-α induced PMN chemotaxis; experiment: GRO-α induced PMN chemotaxis assay; format: cell-based; conditions: human PMNs; for inhibition at 0.01 µM: compound at 10^−8M, read-out: PMN migration by GROα % of inhibition (10^−8M); for PMN migration by GROα % of inhibition: tested at 10^−6M
# Procedure: (§1) The compounds of the invention of formula (I) were evaluated in vitro for their ability to inhibit chemotaxis of polymorphonucleate leukocytes (hereinafter referred to as PMNs) and monocytes induced by the fractions of IL-8 and GRO-α and C5a. For this purpose, in order to isolate the PMNs from heparinized human blood, taken from healthy adult volunteers, mononucleates were removed by means of sedimentation on dextran (according to the procedure disclosed by W. I. Ming et al., J. Immunol., 138, 1469, 1987) and red blood cells by a hypotonic solution. The cell vitality was calculated by exclusion with Trypan blue, whilst the ratio of the circulating polymorphonucleates was estimated on the cytocentrifugate after staining with Diff Quick.
# GRO-α induced chemotaxis inhibition was evaluated in an analogous assay.
# (§2) In the chemotaxis experiments, the PMNs were incubated with the compounds of the invention of formula (I) for 15′ at 37° C. in an atmosphere containing 5% CO2.
# (§3) During the chemotaxis assay (according to W. Falket et al., J. Immunol. Methods, 33, 239, 1980) PVP-free filters with a porosity of 5 μm and microchambers suitable for replication were used.
# (§4) The compounds of the invention in formula (I) were evaluated at a concentration ranging between 10^−6 and 10^−10 M; for this purpose they were added, at the same concentration, both to the lower pores and the upper pores of the microchamber. Evaluation of the ability of the compounds of the invention of formula (I) to inhibit the chemotaxis of human monocytes was carried out according to the method disclosed by Van Damme J. et al. (Eur. J. Immunol., 19, 2367, 1989).
# [3] = Pharmacokinetic profile in male mice after intravenous and oral administration; format: in vivo; conditions: mouse, plasma; for bioavailability: intravenous and oral administration
# Procedure: The pharmacokinetic profile (t1/2, oral bioavailability, etc) of claimed compounds was evaluated in male mice after intravenous and oral administration. The pharmacokinetic analysis was performed using compounds plasmatic concentrations at different times. The data were evaluated by Kinetica 2000™, Version 3.0 Software [InnaPhase Corporation, World headquarters, 1700 Race Street, Philadelphia, Pa. 19103 USA].
# [4] = system: human PMNs chemotaxis induced by IL-8; experiment: IL-8 induced PMN chemotaxis assay; format: cell-based; conditions: compound at 10^−9M, read-out: PMN migration by IL-8 % of inhibition (10^−9M)
# Procedure: as §1
# In the IL-8 induced chemotaxis assay human recombinant IL-8 (Pepro Tech) was used as stimulating agents in the chemotaxis experiments: the lyophilized protein was dissolved in a volume of HBSS containing 0.2% bovin serum albumin (BSA) so thus to obtain a stock solution having a concentration of 10^−5 M to be diluted in HBSS to a concentration of 10^−9 M, for the chemotaxis assays.
# as §2, §3, §4
# [5] = system: C5a induced PMNs chemotaxis; experiment: C5a induced PMN chemotaxis assay; format: cell-based; conditions: human PMNs; for PMN migration by C5a % of inhibition: tested at 10^−6M; for inhibition at 0.01 µM: compound at 10^−8M, read-out: PMN migration by C5a % of inhibition (10^−8M)
# Procedure: as §1
# In the C5a induced chemotaxis essay the fractions hrC5a and hrC5a-desArg (Sigma) were used as stimulating agents in chemotaxis experiments, obtaining practically identical results, Lyophilized C5a was dissolved in a volume of HBSS containing 0.2% BSA so as to obtain a stock solution having a concentration of 10^−5 M, to be diluted in HBSS to a concentration of 10^−9 M, for the chemotaxis assays.
# as §2
# The chemotactic activity of the C5a was evaluated on human circulating polymorphonucleates (PMNs) resuspended in HBSS at a concentration of 1.5×10^6 PMNs per ml.
# as §3, §4
"fraction unbound at 20 min, 50 μg/mL [1]",half-life [3] [h],bioavailability [3] [%],Compound,inhibition at 0.01 µM [2] [%],inhibition at 0.001 µM [4] [%],PMN migration by C5a % of inhibition [5],inhibition at 0.01 µM [5] [%],PMN migration by GROα % of inhibition [2]
0.01,24.7,~100,C[C@@H](C(=O)[N-]S(C)(=O)=O)c1ccc(OS(=O)(=O)C(F)(F)F)cc1.[Na+],61 ± 6,58 ± 9,Inactive^#,,
0.15,1.7,30,CC(C)Cc1ccc([C@@H](C)C(=O)NCCCN2CCCCC2)cc1 [reference compound],39 ± 10,44 ± 5,,55 ± 6,
0.296,3.4,80,C[C@@H](C(=O)NCCN1CCCC1)c1ccc(OS(=O)(=O)C(F)(F)F)cc1.Cl,,52 ± 12,,65 ± 18,Inactive^#
0.016,0.4,35,CC(C)Cc1ccc([C@@H](C)C(N)=O)cc1 [reference compound],10 ± 7,57 ± 12,Inactive^#,,
0.062,2.3,95,C[C@@H](C(N)=O)c1ccc(OS(=O)(=O)C(F)(F)F)cc1,61 ± 3,64 ± 2,Inactive^#,,
0.0002,0.4,80,CC(C)Cc1ccc([C@@H](C)C(=O)NS(C)(=O)=O)cc1 [reference compound],10 ± 18,50 ± 12,Inactive^#,,
0.359,2.4,90,C[C@@H](C(=O)NCCCN1CCCC1)c1ccc(OS(=O)(=O)C(F)(F)F)cc1.Cl,,51 ± 13,,67 ± 10,Inactive^#
